ChEMBL document CHEMBL4311997, “Discovery of a potent histone deacetylase (HDAC) 3/6 selective dual inhibitor” (Eur J Med Chem, 2019)
In brackets after ≈: the same amount, converted by molar mass. Activity calls are given as the source filed them. The calls are words filed in the database; no cut-off is given here.

How the values were obtained:
MDA-MB-231 [1] = assay: Induction of apoptosis in human MDA-MB-231 cells assessed as viable cells at 3 uM incubated for 48 hrs by Annexin V-FITC/PI staining by flow cytometric analysis (reference value: 77%); assay type: functional; details: MDA-MB-231, 48 h, read-out: Activity
[2] = Intrinsic clearance in mouse liver microsomes at 3 uM preincubated for 5 mins followed by NADPH addition and measured up to 45 mins by LC-MS/MS analysis; assay type: ADME, Microsome; details: read-out: CLH
[3] = target: Histone deacetylase 1/2/3 (Homo sapiens, UniProt Q13547+O15379+Q92769); assay: Inhibition of HDAC1/2/3 in human KMS-12-BM cells assessed as increase in Ac-H3 level incubated for 24 hrs by Western blot analysis; assay type: cell-based
Plasmodium falciparum = assay: microbe, parasite or virus in culture; assay type: functional, organism-based; details: K1, 48 h
Description: Antimalarial activity against ring stage Plasmodium falciparum K1 incubated for 48 hrs by Hoechst 33342 staining based fluorescence based assay

[4] = Intrinsic clearance in female rat liver microsomes at 3 uM preincubated for 5 mins followed by NADPH addition and measured up to 45 mins by LC-MS/MS analysis; assay type: ADME, Microsome
[5] = Effective permeability of the compound at pH 7.4 measured after 6 hrs by PAMPA assay; assay type: ADME; details: read-out: Peff
[6] = target: Protein deacetylase HDAC6 (Homo sapiens) (UniProt Q9UBN7); assay: Inhibition of HDAC6 in human KMS-12-BM cells assessed as increase in Ac-Tubulin level at 2.5 to 10 uM incubated for 24 hrs by Western blot analysis; assay type: cell-based
[7] = target: Protein arginine N-methyltransferase 1 (Homo sapiens) (UniProt Q99873); assay: Inhibition of human PRMT1 at 100 uM using histone H4 as substrate incubated for 1 hr in presence of [3H]-SAM by filter binding method relative to control
Sequence of Protein arginine N-methyltransferase 1 (Homo sapiens) (Q99873 whole entry, looked up): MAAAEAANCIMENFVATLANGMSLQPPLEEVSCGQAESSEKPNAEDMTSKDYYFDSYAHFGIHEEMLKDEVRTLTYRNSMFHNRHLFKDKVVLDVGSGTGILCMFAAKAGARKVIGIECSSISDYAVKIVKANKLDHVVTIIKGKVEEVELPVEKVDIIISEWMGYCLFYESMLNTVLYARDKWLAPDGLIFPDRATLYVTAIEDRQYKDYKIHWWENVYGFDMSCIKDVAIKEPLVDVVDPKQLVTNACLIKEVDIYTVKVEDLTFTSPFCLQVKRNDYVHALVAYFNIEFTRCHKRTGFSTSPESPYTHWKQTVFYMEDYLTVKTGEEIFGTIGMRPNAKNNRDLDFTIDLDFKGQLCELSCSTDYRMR

Homo sapiens [8] = organism: Homo sapiens; assay: Selectivity ratio of IC50 for inhibition of human HDAC1 to IC50 for inhibition of human HDAC3
[9] = Selectivity index, ratio of EC50 for human MDA-MB-231 cells to IC50 for ring stage Plasmodium falciparum 3D7; assay type: functional; set-up: reference not given here
[10] = target: DNA (cytosine-5)-methyltransferase 1 (Homo sapiens, UniProt P26358); assay: Inhibition of human DNMT1 using Poly(dI-dC) as substrate incubated for 1 hr in presence of [3H]-SAM by filter binding method
TAMH = assay: Cytotoxicity against TAMH cells incubated for 24 hrs by CellTiter-Glo Cell Viability Assay; assay type: cell-based; details: Mus musculus
Homo sapiens [11] = organism: Homo sapiens; assay: Selectivity ratio of IC50 for inhibition of human HDAC2 to IC50 for inhibition of human HDAC3
MDA-MB-231 [12] = assay: Induction of apoptosis in human MDA-MB-231 cells assessed as necrotic cells at 9 uM incubated for 48 hrs by Annexin V-FITC/PI staining by flow cytometric analysis (reference value: 15%); assay type: functional
[13] = Half life in female rat liver microsomes at 3 uM preincubated for 5 mins followed by NADPH addition and measured up to 45 mins by LC-MS/MS analysis; assay type: ADME, Microsome
[14] = Therapeutic Index, ratio of EC50 for human AC10 cells to EC50 for human MDA-MB-231 cells; assay type: toxicity; details: AC10 cells versus MDA-MB-231 cells, read-out: Ratio EC50
[15] = Therapeutic Index, ratio of EC50 for mouse TAMH cells to EC50 for human MDA-MB-231 cells; assay type: toxicity; details: TAMH cells versus MDA-MB-231 cells, read-out: Ratio EC50
Homo sapiens [16] = organism: Homo sapiens; assay: Selectivity ratio of IC50 for human HDAC4 to IC50 for human HDAC6
[17] = target: Histone-lysine N-methyltransferase EHMT2 (Homo sapiens, UniProt Q96KQ7); assay: Inhibition of human G9a using core histone H3 (1 to 21 residues) as substrate incubated for 1 hr in presence of [3H]-SAM by filter binding method
Sequence of Histone-lysine N-methyltransferase EHMT2 (Q96KQ7 whole entry, the tested form may be a part): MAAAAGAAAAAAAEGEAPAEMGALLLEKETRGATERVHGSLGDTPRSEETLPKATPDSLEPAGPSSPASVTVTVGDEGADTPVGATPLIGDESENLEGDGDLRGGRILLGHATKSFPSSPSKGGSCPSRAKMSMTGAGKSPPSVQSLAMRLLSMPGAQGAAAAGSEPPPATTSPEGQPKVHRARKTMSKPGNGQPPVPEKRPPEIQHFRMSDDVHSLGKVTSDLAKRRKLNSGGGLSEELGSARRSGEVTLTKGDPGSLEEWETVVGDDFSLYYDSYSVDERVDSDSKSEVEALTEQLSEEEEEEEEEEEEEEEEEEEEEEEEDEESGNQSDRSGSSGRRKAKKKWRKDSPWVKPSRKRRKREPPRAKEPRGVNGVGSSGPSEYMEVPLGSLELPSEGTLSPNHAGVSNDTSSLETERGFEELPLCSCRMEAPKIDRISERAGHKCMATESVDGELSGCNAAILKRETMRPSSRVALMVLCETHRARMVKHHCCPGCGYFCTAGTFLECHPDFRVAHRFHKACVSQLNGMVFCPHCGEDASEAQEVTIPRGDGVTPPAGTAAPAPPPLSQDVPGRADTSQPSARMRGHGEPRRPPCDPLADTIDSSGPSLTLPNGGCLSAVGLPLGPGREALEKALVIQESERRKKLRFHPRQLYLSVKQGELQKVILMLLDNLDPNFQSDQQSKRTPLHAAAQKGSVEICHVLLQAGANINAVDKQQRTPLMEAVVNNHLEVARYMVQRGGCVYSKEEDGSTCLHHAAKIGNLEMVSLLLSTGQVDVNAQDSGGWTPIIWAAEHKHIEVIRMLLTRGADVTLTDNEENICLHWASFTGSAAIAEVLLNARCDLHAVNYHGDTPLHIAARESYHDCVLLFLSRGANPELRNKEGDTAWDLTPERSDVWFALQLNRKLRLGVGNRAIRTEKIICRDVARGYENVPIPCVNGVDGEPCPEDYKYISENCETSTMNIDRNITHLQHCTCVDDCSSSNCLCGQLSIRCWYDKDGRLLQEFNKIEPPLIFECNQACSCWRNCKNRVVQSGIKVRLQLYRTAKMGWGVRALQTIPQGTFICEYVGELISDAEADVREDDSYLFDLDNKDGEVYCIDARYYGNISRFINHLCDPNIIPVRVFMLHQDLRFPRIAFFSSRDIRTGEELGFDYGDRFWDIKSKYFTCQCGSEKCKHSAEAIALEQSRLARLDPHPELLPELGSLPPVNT

[18] = target: Histone-lysine N-methyltransferase, H3 lysine-79 specific (Homo sapiens) (UniProt Q8TEK3); assay: Inhibition of human DOT1L at 100 uM using oligo nucleosomes as substrate incubated for 1 hr in presence of [3H]-SAM by filter binding method relative to control
Sequence of Histone-lysine N-methyltransferase, H3 lysine-79 specific (Homo sapiens) (Q8TEK3 whole entry, looked up): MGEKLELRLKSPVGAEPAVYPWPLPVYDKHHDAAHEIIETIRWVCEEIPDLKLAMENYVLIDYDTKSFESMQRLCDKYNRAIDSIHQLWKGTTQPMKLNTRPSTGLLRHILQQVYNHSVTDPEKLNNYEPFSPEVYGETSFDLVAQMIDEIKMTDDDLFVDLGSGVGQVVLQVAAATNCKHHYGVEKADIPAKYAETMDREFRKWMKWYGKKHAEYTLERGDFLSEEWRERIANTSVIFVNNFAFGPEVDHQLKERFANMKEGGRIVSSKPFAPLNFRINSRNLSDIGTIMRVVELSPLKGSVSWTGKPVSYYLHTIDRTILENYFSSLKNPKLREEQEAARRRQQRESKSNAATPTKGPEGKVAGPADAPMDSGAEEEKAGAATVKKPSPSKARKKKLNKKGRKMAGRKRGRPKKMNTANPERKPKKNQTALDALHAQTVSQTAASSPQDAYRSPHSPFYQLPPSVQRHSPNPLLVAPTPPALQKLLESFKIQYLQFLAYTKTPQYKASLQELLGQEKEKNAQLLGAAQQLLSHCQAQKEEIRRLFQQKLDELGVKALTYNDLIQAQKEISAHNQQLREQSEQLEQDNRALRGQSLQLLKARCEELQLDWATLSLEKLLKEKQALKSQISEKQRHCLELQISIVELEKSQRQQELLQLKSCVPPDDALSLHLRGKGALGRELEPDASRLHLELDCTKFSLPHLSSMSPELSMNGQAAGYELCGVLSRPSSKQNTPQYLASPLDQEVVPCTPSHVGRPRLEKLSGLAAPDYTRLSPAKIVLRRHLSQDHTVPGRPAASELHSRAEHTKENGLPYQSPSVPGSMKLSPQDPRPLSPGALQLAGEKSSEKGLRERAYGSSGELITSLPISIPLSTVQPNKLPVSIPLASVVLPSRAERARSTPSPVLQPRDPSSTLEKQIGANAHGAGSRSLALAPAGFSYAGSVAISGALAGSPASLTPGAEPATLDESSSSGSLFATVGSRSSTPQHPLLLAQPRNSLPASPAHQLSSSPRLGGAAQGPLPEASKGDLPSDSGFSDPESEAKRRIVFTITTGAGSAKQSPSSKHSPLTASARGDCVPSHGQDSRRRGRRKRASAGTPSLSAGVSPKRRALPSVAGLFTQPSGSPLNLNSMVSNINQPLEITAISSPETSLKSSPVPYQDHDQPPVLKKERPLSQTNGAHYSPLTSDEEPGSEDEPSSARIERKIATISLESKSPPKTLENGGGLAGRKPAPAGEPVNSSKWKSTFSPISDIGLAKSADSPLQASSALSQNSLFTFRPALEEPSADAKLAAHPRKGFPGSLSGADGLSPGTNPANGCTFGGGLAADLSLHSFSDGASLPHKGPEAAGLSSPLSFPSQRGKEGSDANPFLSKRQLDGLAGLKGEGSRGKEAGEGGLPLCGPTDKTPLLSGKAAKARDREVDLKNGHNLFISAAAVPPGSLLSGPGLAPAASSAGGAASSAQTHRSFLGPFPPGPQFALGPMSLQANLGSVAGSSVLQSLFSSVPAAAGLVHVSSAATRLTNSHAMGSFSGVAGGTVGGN

[19] = Selectivity index, ratio of EC50 for human MDA-MB-231 cells to IC50 for ring stage Plasmodium falciparum K1; assay type: functional; set-up: reference not given here
[20] = Effective permeability of the compound at pH 7.4 measured after 16 hrs by PAMPA assay; assay type: ADME; details: read-out: Peff
MDA-MB-231 [21] = assay: Induction of apoptosis in human MDA-MB-231 cells assessed as viable cells at 9 uM incubated for 48 hrs by Annexin V-FITC/PI staining by flow cytometric analysis (reference value: 77%); assay type: functional; details: MDA-MB-231, 48 h, read-out: Activity
Histone deacetylase 8 = Histone deacetylase 8 (Homo sapiens, UniProt Q9BY41); assay: Inhibition of human HDAC8 using Arg-His-Lys (Ac)-Lys (Ac) as substrate incubated for 2 hrs by fluorescence assay
Sequence of Histone deacetylase 8 (Q9BY41 whole entry): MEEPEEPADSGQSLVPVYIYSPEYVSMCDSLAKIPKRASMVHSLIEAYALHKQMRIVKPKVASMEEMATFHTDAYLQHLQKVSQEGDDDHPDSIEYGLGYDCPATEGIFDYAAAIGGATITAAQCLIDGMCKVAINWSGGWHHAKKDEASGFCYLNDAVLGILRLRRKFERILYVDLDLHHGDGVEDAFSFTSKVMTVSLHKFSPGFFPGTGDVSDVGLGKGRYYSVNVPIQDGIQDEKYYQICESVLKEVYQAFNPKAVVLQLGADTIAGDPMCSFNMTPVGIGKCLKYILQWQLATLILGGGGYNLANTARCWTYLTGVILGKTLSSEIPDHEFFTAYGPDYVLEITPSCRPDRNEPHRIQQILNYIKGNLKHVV

[22] = Half life in mouse liver microsomes at 3 uM preincubated for 5 mins followed by NADPH addition and measured up to 45 mins by LC-MS/MS analysis; assay type: ADME, Microsome
MDA-MB-231 [23] = assay: Induction of apoptosis in human MDA-MB-231 cells assessed as late apoptotic cells at 9 uM incubated for 48 hrs by Annexin V-FITC/PI staining by flow cytometric analysis (reference value: 3%); assay type: functional
Homo sapiens [24] = organism: Homo sapiens; assay: Selectivity ratio of IC50 for human HDAC9 to IC50 for human HDAC6
Homo sapiens [25] = organism: Homo sapiens; assay: Inhibition of human EZH2 complex at 100 uM using core histone as substrate incubated for 1 hr in presence of [3H]-SAM by filter binding method relative to control
Histone deacetylase 2 = Histone deacetylase 2 (Homo sapiens, UniProt Q92769); assay: Inhibition of human HDAC2 using Arg-His-Lys-Lys (Ac) as substrate incubated for 2 hrs by fluorescence assay
Sequence of Histone deacetylase 2 (Q92769 whole entry): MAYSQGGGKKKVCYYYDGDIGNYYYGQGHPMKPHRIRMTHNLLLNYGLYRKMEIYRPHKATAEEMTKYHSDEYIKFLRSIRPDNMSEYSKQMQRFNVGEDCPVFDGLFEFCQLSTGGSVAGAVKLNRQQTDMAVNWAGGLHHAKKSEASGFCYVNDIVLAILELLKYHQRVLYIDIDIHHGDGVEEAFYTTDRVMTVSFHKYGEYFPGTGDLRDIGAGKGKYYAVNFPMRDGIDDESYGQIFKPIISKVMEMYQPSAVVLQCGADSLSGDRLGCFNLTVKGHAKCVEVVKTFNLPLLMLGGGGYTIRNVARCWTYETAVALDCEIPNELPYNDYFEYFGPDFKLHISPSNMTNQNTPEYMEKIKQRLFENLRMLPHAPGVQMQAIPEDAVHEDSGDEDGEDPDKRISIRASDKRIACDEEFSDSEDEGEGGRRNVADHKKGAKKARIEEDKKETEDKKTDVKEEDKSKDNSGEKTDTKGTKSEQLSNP

KMS-12-BM = assay: Antiproliferative activity against human KMS-12-BM cells incubated for 48 hrs by CellTiter-Glo luminescent cell viability assay; assay type: functional, cell-based
Histone deacetylase 3 = Histone deacetylase 3 (Homo sapiens, UniProt O15379); assay: Inhibition of human HDAC3 using Arg-His-Lys-Lys (Ac) as substrate incubated for 2 hrs by fluorescence assay
Sequence of Histone deacetylase 3 (O15379 whole entry): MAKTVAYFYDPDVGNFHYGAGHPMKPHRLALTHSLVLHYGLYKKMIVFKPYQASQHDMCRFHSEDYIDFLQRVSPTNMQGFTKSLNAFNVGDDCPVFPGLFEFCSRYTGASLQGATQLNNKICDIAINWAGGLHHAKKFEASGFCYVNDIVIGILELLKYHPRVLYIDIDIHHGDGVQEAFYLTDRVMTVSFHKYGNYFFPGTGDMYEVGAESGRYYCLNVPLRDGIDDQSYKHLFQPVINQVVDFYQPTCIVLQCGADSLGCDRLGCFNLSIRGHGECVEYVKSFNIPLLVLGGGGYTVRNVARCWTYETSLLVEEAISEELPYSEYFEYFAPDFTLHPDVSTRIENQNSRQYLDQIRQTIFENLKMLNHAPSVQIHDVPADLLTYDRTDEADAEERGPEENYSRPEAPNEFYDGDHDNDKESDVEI

Homo sapiens [26] = organism: Homo sapiens; assay: Selectivity ratio of IC50 for human HDAC5 to IC50 for human HDAC6
Homo sapiens [27] = organism: Homo sapiens; assay: Inhibition of human MLL1 complex at 100 uM using core histone as substrate incubated for 1 hr in presence of [3H]-SAM by filter binding method relative to control
MDA-MB-231 [28] = assay: Induction of apoptosis in human MDA-MB-231 cells assessed as necrotic cells at 6 uM incubated for 48 hrs by Annexin V-FITC/PI staining by flow cytometric analysis (reference value: 15%); assay type: functional
[29] = Kinetic solubility in pH 7.4 universal buffer measured after 24 hrs by UV spectroscopic analysis; assay type: physicochemical; details: read-out: Kinetic_solubility
[30] = target: Histone-lysine N-methyltransferase SUV39H2 (Homo sapiens) (UniProt Q9H5I1); assay: Inhibition of human SUV39H2 at 100 uM using histone H3 as substrate incubated for 1 hr in presence of [3H]-SAM by filter binding method relative to control
Sequence of Histone-lysine N-methyltransferase SUV39H2 (Homo sapiens) (Q9H5I1 whole entry): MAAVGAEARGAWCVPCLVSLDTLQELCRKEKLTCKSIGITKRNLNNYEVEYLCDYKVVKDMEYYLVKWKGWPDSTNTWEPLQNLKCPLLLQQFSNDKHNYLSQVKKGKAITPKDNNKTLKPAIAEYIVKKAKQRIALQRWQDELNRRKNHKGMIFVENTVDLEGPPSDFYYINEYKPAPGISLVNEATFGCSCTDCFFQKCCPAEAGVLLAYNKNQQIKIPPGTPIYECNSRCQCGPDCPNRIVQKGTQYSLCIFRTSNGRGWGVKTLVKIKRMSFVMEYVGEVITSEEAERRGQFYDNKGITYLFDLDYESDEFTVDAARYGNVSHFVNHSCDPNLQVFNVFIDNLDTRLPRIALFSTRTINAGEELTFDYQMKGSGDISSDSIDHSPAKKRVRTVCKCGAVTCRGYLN

SMILES: COc1ccc(CN2CCC(Nc3nc(Nc4ccc(NC(=O)CCCCCCC(=O)NO)cc4)nc4cc(OC)c(OC)cc34)CC2)cc1
- viability at 3 µM (MDA-MB-231 [1]): 48%
- microsomal CLint at 3 µM [2]: 52.2 µL/min/mg
- EC50 [3]: 7.5 µM
- inhibition [3]: Dose-dependent effect
- IC50 (Plasmodium falciparum): 0.508 µM
- microsomal CLint at 3 µM [4]: 22.3 µL/min/mg
- Papp at 6 h [5]: 21.8 ×10⁻⁶ cm/s
- inhibition [6]: Active
- inhibition [7]: inactive
- Ratio IC50 (Homo sapiens [8]): 26 to 33
- Selectivity Index [9]: 43
- IC50 [10]: 14 µM
- EC50 (TAMH): 29 µM
- Ratio IC50 (Homo sapiens [11]): 26 to 33
- Activity (MDA-MB-231 [12]): 8%
- half-life at 3 µM [13]: 1.73 h
- selectivity ratio [14]: 15
- selectivity ratio [15]: 5
- Ratio IC50 (Homo sapiens [16]): > 3000
- EC50 [17]: 142 µM
- inhibition [18]: 16%
- Selectivity Index [19]: 12
- Papp at 16 h [20]: 7.9 ×10⁻⁶ cm/s
- viability at 9 µM (MDA-MB-231 [21]): 57%
- IC50 (Histone deacetylase 8): 1.26 µM
- half-life at 3 µM [22]: 0.443 h
- Activity (MDA-MB-231 [23]): 11%
- Ratio IC50 (Homo sapiens [24]): > 3000
- inhibition (Homo sapiens [25]): 27%
- IC50 (Histone deacetylase 2): 1.13 µM
- EC50 (KMS-12-BM): 7.6 µM
- IC50 (Histone deacetylase 3): 0.034 µM
- Ratio IC50 (Homo sapiens [26]): > 3000
- inhibition (Homo sapiens [27]): 42%
- Activity (MDA-MB-231 [28]): 12%
- solubility kinetic at 24 h [29]: 4 µM (≈ 2.74 µg/mL)
- inhibition [30]: inactive
